From publication PMC10106510 (European Journal of Medicinal Chemistry, 2023)

Tests used:
SARS-CoV-2 PLpro [1] = biological target: T1, SARS-CoV-2 PLpro (Severe acute respiratory syndrome coronavirus 2, UniProt P0DTD1); conditions: cited from earlier work
MERS-CoV PLpro = conditions: cited from earlier work
CYP3A4 = CYP3A4 (Homo sapiens, UniProt P08684)
SARS-CoV-2 PLpro [2] = biological target: T1, SARS-CoV-2 PLpro; experiment: Papain-like protease; conditions: variable results in dose-dependent study, IC50 not determined
[3] = tested on: SARS-CoV-2 RNA (ORF1b, Spike) in infected Caco-2 cells; format: cell-based
[4] = tested on: SARS-CoV-2 infected Caco-2 cells (IFN-α, IL-6, OAS1 mRNA); format: cell-based, Human; conditions: 20 μg/mL
Balb/c mice [5] = conditions: 25, 50, and 100 mg/kg, intraperitoneal
Balb/c mice [6] = tested on: Balb/c mice

Sequence of CYP3A4 (P08684 whole entry): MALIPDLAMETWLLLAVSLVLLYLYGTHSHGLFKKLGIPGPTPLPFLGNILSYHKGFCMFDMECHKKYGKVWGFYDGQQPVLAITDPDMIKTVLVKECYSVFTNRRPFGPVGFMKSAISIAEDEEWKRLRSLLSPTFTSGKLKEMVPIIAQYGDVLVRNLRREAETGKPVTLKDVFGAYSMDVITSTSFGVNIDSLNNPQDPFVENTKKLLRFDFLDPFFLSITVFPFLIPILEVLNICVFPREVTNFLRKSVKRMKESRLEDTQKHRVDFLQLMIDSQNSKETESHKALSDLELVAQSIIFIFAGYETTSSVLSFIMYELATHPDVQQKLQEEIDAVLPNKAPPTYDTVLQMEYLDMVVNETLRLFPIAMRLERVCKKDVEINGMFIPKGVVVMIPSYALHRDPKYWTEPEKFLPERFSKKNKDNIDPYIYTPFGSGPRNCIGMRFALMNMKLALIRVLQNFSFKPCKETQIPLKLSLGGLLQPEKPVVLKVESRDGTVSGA

Cc1ccc(N)cc1C(=O)N[C@H](C)c1cccc2ccccc12 [GRL0617]
inhibitory activity in a cell-based assay (SARS-CoV-2 PLpro [1]): moderate to weak
activity against MERS-CoV PLpro (MERS-CoV PLpro): inactivity

CC1(C)[C@H]2COc3ccc4ccccc4c3[C@H]2N=C2SC=C(c3ccc(S(=O)(=O)N4CCOCC4)cc3)N21 [SIMR1493]
CYP3A4 IC50 (CYP3A4): 134 µM

COC(=O)C[C@@H]1COc2ccccc2[C@H](C(=O)NC(C)(C)C)N(CCc2c[nH]c3ccc(OC)cc23)C(=O)[C@@H]1c1nnc(-c2cccc(C(F)(F)F)c2)o1 [SIMR2304]
PLpro inhibitory activity, initial screening (SARS-CoV-2 PLpro [2]): very strong inhibitory activity

COc1ccc2[nH]c3c(c2c1)C[C@]1(OC)CC[C@H]2c4[nH]c5ccccc5c4CCN2[C@@H]1C3 [SIMR3030]
Spike RNA inhibition ([3]; 20 μg/mL, 1, 6 and 12 h): observed only after 6 and 12 h
viral ORFb1 RNA inhibition ([3]; 20 μg/mL, at 1, 6 and 12 h): more than 70%
IL-6 mRNA expression ([4]; at 1, 3 and 12 h): significantly reduced
OAS1 mRNA expression ([4]; at 1, 3 and 12 h): significantly reduced
IFN-α mRNA expression ([4]; at 1 and 3 h): significantly reduced
signs of toxicity or body weight loss, single dose (Balb/c mice [5]): no signs of toxicity or body weight loss
platelet population (Balb/c mice [6]; 25 mg/kg multiple dose, hematological analysis): slight reduction
signs of toxicity or weight loss, multiple dose (Balb/c mice [6]; 12.5 and 25 mg/kg, intraperitoneal, daily for 14 days): no signs of toxicity or weight loss
microscopic investigation of organs (liver, spleen, kidneys, heart, lungs) (Balb/c mice [6]; H&E staining, 12.5 and 25 mg/kg multiple dose): no histologic variations and no signs of toxic injury
